According to PubChem BioAssay AID248 (DTP/NCI, 2004):
“And” between values parts separate entries of the source, which are not always exact repeats. Equal values may be shown once. Inconclusive results and toxic doses are left out. Cut-off read from the data, not from the text of the source: active = T/C of 150% or more; inactive = T/C below 125%.

System: L1210 leukemia ip in BDF1 mice, survival T/C
Assay: NCI In Vivo Anticancer Drug Screen. Data for tumor model L1210 Leukemia (intraperitoneal) in B6D2F1 (BDF1) mice
Settings: endpoint: mean survival time, higher = longer survival
Method in brief: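 In this screen, tumor-bearing mice given compound are compared to those given vehicle, and their survival values are reported as a treated-to-control quotient.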

[1] = dose: 12.5 mg/kg/injection, schedule: Q01DX009 (ip), vehicle: saline with Tween-80
[2] = dose: 25.0 mg/kg/injection, schedule: Q01DX009 (ip), vehicle: saline with Tween-80
[3] = dose: 100.0 mg/kg/injection, schedule: Q01DX001 (ip), vehicle: saline
[4] = dose: 100.0 mg/kg/injection, schedule: Q04DX003 (ip), vehicle: saline
[5] = dose: 200.0 mg/kg/injection, schedule: Q01DX001 (ip), vehicle: saline
[6] = dose: 200.0 mg/kg/injection, schedule: Q04DX003 (ip), vehicle: saline
[7] = dose: 400.0 mg/kg/injection, schedule: Q04DX003 (ip), vehicle: saline
[8] = dose: 100.0 mg/kg/injection, schedule: Q01DX009 (ip), vehicle: Klucel (hydroxypropylcellulose) (HPC)
[9] = dose: 200.0 mg/kg/injection, schedule: Q01DX009 (ip), vehicle: Klucel (hydroxypropylcellulose) (HPC)
[10] = dose: 400.0 mg/kg/injection, schedule: Q01DX009 (ip), vehicle: Klucel (hydroxypropylcellulose) (HPC)
[11] = dose: 50.0 mg/kg/injection, schedule: Q01DX009 (ip), vehicle: saline with Tween-80
[12] = dose: 100.0 mg/kg/injection, schedule: Q04DX003 (ip), vehicle: saline with Tween-80
[13] = dose: 100.0 mg/kg/injection, schedule: Q04DX003 (ip), vehicle: Klucel (hydroxypropylcellulose) (HPC)
[14] = dose: 200.0 mg/kg/injection, schedule: Q04DX003 (ip), vehicle: Klucel (hydroxypropylcellulose) (HPC)
[15] = dose: 400.0 mg/kg/injection, schedule: Q04DX003 (ip), vehicle: Klucel (hydroxypropylcellulose) (HPC)
[16] = dose: 75.0 mg/kg/injection, schedule: Q01DX001 (ip), vehicle: saline
[17] = dose: 75.0 mg/kg/injection, schedule: Q04DX003 (ip), vehicle: saline
[18] = dose: 150.0 mg/kg/injection, schedule: Q01DX001 (ip), vehicle: saline
[19] = dose: 150.0 mg/kg/injection, schedule: Q04DX003 (ip), vehicle: saline
[20] = dose: 300.0 mg/kg/injection, schedule: Q01DX001 (ip), vehicle: saline

Measured: T/C

CN1CCC(CN2c3ccccc3Sc3ccccc32)CC1
inactive: dose: 6.25 mg/kg/injection, schedule: Q01DX009 (ip), vehicle: saline with Tween-80 93 % of control | [1] 93 % of control | dose: 15.0 mg/kg/injection, schedule: Q01DX Z (ip), vehicle: methylcellulose (MC) 104 % of control | [2] 93 % of control | dose: 25.0 mg/kg/injection, schedule: Q04DX003 (ip), vehicle: saline 108 % of control | dose: 30.0 mg/kg/injection, schedule: Q01DX Z (ip), vehicle: methylcellulose (MC) 108 % of control | dose: 45.0 mg/kg/injection, schedule: Q01DX Z (ip), vehicle: methylcellulose (MC) 96 % of control | dose: 50.0 mg/kg/injection, schedule: Q04DX003 (ip), vehicle: saline 100 % of control and 109 % of control | [3] 103 % of control | [4] 97 % of control | [5] 102 % of control | [6] 106 % of control and 108 % of control | [7] 97 % of control

Cc1ccc(NC(=O)CCC(=O)O)cc1[N+](=O)[O-]
inactive: [8] 97 % of control | [9] 101 % of control | [10] 98 % of control

Cc1cc(C)c(CCN(C)C)c(C)c1
inactive: dose: 50.0 mg/kg/injection, schedule: Q01DX001 (ip), vehicle: saline 101 % of control | [3] 97 % of control | [5] 91 % of control

CCCCCCCCCCCCNC
inactive: [1] 92 % of control | [2] 93 % of control | dose: 25.0 mg/kg/injection, schedule: Q04DX003 (ip), vehicle: saline with Tween-80 103 % of control | [11] 91 % of control | dose: 50.0 mg/kg/injection, schedule: Q04DX003 (ip), vehicle: saline with Tween-80 93 % of control | [12] 93 % of control

CCCCCCCCCC(=O)N(C(C)C)C(C)C
inactive: dose: 100.0 mg/kg/injection, schedule: Q01DX001 (ip), vehicle: carboxymethylcellulose (CMC) 100 % of control | dose: 100.0 mg/kg/injection, schedule: Q01DX009 (ip), vehicle: carboxymethylcellulose (CMC) 96 % of control and 106 % of control | dose: 100.0 mg/kg/injection, schedule: Q04DX003 (ip), vehicle: carboxymethylcellulose (CMC) 93 % of control | dose: 200.0 mg/kg/injection, schedule: Q01DX001 (ip), vehicle: carboxymethylcellulose (CMC) 94 % of control | dose: 200.0 mg/kg/injection, schedule: Q01DX009 (ip), vehicle: carboxymethylcellulose (CMC) 94 % of control and 100 % of control | dose: 200.0 mg/kg/injection, schedule: Q04DX003 (ip), vehicle: carboxymethylcellulose (CMC) 95 % of control | dose: 400.0 mg/kg/injection, schedule: Q01DX001 (ip), vehicle: carboxymethylcellulose (CMC) 96 % of control | dose: 400.0 mg/kg/injection, schedule: Q01DX009 (ip), vehicle: carboxymethylcellulose (CMC) 95 % of control | dose: 400.0 mg/kg/injection, schedule: Q04DX003 (ip), vehicle: carboxymethylcellulose (CMC) 92 % of control

CC(=O)c1sccc1C
inactive: dose: 6.25 mg/kg/injection, schedule: Q01DX009 (ip), vehicle: Klucel (hydroxypropylcellulose) (HPC) 93 % of control | dose: 12.5 mg/kg/injection, schedule: Q01DX009 (ip), vehicle: Klucel (hydroxypropylcellulose) (HPC) 92 % of control | dose: 12.5 mg/kg/injection, schedule: Q04DX003 (ip), vehicle: Klucel (hydroxypropylcellulose) (HPC) 101 % of control | dose: 25.0 mg/kg/injection, schedule: Q01DX009 (ip), vehicle: Klucel (hydroxypropylcellulose) (HPC) 90 % of control | dose: 25.0 mg/kg/injection, schedule: Q04DX003 (ip), vehicle: Klucel (hydroxypropylcellulose) (HPC) 92 % of control

O=C(O)c1cccc2c1OCO2
inactive: [11] 112 % of control | dose: 100.0 mg/kg/injection, schedule: Q01DX009 (ip), vehicle: saline with Tween-80 98 % of control | dose: 100.0 mg/kg/injection, schedule: Q04DX002 (ip), vehicle: saline with Tween-80 103 % of control | dose: 200.0 mg/kg/injection, schedule: Q01DX009 (ip), vehicle: saline with Tween-80 98 % of control | dose: 200.0 mg/kg/injection, schedule: Q04DX002 (ip), vehicle: saline with Tween-80 95 % of control

NC(=O)c1ccc[n+]([O-])c1
inactive: [8] 104 % of control | [13] 100 % of control | [9] 100 % of control | [14] 100 % of control | [10] 98 % of control | [15] 94 % of control

CSc1ncnc2c1c(Br)cn2C1OC(CO)C(O)C1O (stereo not given)
inactive: [3] 100 % of control | [5] 108 % of control | dose: 400.0 mg/kg/injection, schedule: Q01DX001 (ip), vehicle: saline 114 % of control

CCOC(=O)c1ccc2c(ccc[n+]2C)c1
inactive: [16] 97 % of control | [17] 107 % of control | [18] 97 % of control | [19] 105 % of control | [20] 95 % of control

Nc1nc2nc(N=Nc3ccc(S(N)(=O)=O)cc3)[nH]c2c(=O)[nH]1
inactive: [13] 96 % of control | [14] 93 % of control | [15] 99 % of control

CCCCn1c(=S)[nH]c2ccccc2c1=O
inactive: [8] 100 % of control | [13] 98 % of control | [9] 94 % of control | [14] 95 % of control | [10] 96 % of control | [15] 92 % of control

NC(N)=N/N=C/c1c2ccccc2cc2ccccc12
inactive: dose: 15.0 mg/kg/injection, schedule: Q01DX Z (ip), vehicle: carboxymethylcellulose (CMC) 101 % of control | dose: 30.0 mg/kg/injection, schedule: Q01DX Z (ip), vehicle: carboxymethylcellulose (CMC) 101 % of control | dose: 240.0 mg/kg/injection, schedule: Q01DX Z (oral), vehicle: carboxymethylcellulose (CMC) 104 % of control

CCOC(=O)Cc1cc(=O)c2cc(OC)ccc2[nH]1
inactive: [16] 107 % of control | [17] 105 % of control | [18] 91 % of control | [19] 100 % of control | [20] 94 % of control | dose: 300.0 mg/kg/injection, schedule: Q04DX003 (ip), vehicle: saline 103 % of control

CCCCNC(=S)N(CCCC)CCCC
inactive: [4] 96 % of control | [6] 103 % of control | [7] 96 % of control

O=C(Oc1cc(OC(=O)c2ccccc2)cc(OC(=O)c2ccccc2)c1)c1ccccc1
inactive: [8] 95 % of control | [13] 100 % of control | [9] 95 % of control | [14] 100 % of control | [10] 95 % of control | [15] 100 % of control

N#Cc1ccc(OCCCOc2ccccc2)cc1
inactive: dose: 100.0 mg/kg/injection, schedule: Q01DX001 (ip), vehicle: saline with Tween-80 100 % of control | dose: 200.0 mg/kg/injection, schedule: Q01DX001 (ip), vehicle: saline with Tween-80 102 % of control | dose: 400.0 mg/kg/injection, schedule: Q01DX001 (ip), vehicle: saline with Tween-80 93 % of control

Cc1ccc(C(=O)CCl)o1
inactive: [12] 106 % of control | dose: 200.0 mg/kg/injection, schedule: Q04DX003 (ip), vehicle: saline with Tween-80 116 % of control
